According to paper PMC5486949 (SLAS discovery, 2017):

What was measured:
Assay type in all cases: cell-based, human
PGC-1α/ERRα = experiment: PGC/ERR luciferase reporter gene assay, antagonist mode; settings: Homo sapiens
ERR cell line (HEK293T) = experiment: Cell viability assay multiplexed with ERR antagonist mode assay; settings: Homo sapiens, HEK-293T, read-out: ERRα (Viability) IC50
[1] = tested on: PGC/ERR cell line (HEK293T); experiment: Cell viability assay multiplexed with PGC/ERR antagonist mode assay; settings: Homo sapiens, HEK-293T, read-out: PGC-1α/ERRα (Viability) IC50

C=C(C)[C@H]1Cc2c(ccc3c2O[C@@H]2COc4cc(OC)c(OC)cc4[C@@H]2C3=O)O1 [Rotenone]
AC50 (PGC-1α/ERRα; read-out: AC50 PGC/ERR ↓): 74.1 nM | IC50 (PGC-1α/ERRα; read-out: PGC-1α/ERRα (Antagonist) IC50): 40 nM | IC50 (ERR cell line (HEK293T)): 1330 nM | IC50 [1]: 6680 nM
